This note sets out measurements from patent publication US20240018161A1, “MODULATORS OF CYSTIC FIBROSIS TRANSMEMBRANE CONDUCTANCE REGULATOR” (VERTEX PHARMACEUTICALS INCORPORATED, priority 2020, published 2024).

Structures are written as SMILES. Where only a bound is given, the exact number is not on record here.

In the test the target is CFTR-mediated chloride transport in human intestinal epithelial enteroid cells (Homo sapiens, UniProt P13569). The experiment in a line: Membrane potential dye, Enteroid Assay A. The test is classed as cell-based. The settings on record: Enteroid Assay A; for EC50: read-out: Ent. A EC50. The essentials: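 Membrane potential dye (20 μM methyl oxonol, with 30 μM CaCCinh-A01 and 30 μM Chicago Sky Blue) loaded 25 min at room temperature into ROCK-inhibitor-seeded human enteroid cells. Chloride-free stimulation buffer triggered transport, followed by 15 min fluorescence. % Activity relative to 3 μM/3 μM/300 nM triple-combination control.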
CFTR-mediated chloride transport in human intestinal epithelial enteroid cells, sequence (P13569 with tags, fused parts or gaps DEL508-508): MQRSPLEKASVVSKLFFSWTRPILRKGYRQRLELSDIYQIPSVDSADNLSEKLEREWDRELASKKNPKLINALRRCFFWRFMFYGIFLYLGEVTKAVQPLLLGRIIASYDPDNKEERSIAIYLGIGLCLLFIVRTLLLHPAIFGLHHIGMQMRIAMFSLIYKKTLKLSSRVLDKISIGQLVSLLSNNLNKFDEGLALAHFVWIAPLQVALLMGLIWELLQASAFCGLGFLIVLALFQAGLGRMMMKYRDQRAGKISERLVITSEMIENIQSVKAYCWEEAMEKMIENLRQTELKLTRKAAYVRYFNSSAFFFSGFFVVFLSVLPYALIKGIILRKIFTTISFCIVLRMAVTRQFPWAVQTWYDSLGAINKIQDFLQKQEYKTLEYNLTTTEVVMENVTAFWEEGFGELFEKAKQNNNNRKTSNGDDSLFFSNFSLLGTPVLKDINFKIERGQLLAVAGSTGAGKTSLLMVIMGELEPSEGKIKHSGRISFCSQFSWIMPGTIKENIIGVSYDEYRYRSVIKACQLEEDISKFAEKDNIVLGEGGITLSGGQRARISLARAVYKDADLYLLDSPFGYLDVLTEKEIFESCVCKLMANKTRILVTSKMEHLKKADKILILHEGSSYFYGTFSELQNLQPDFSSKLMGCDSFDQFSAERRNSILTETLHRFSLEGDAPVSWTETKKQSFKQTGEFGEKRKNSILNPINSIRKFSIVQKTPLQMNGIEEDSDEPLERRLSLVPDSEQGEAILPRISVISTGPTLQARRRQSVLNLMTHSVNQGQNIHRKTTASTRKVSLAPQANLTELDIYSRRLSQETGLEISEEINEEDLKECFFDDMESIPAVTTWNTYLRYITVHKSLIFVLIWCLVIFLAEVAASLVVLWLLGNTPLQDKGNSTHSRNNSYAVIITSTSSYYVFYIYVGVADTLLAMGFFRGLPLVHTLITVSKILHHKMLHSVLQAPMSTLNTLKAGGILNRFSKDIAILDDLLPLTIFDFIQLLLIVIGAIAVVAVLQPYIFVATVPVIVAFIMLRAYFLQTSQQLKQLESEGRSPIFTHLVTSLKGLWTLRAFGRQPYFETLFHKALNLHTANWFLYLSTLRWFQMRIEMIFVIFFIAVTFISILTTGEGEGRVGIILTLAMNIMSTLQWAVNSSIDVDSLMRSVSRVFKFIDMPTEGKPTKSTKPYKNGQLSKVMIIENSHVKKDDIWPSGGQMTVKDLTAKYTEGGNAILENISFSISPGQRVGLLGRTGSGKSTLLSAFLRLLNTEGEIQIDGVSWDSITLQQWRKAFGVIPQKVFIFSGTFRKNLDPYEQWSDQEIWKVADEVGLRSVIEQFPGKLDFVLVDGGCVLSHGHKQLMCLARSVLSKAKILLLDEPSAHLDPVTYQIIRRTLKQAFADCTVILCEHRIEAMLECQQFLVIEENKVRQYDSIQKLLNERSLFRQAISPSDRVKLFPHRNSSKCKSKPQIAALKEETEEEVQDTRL

Take `Cc1cccc(C)c1-c1cc2nc(n1)NS(=O)(=O)c1cccc(c1)C(=O)N1CCN(C(C)C)C[C@H](C1)O2` [Compound 75, (16R)-12-(2,6-Dimethylphenyl)-18-(propan-2-yl)-15-oxa-8λ^6-thia-1,9,11,18,22-pentaazatetracyclo[14.4.1.13,7.110,14]tricosa-3,5,7(23),10,12,14(22)-hexaene-2,8,8-trione]: the “Ent. A Max Activity (%)” value is given as “+++ (+++ is >600%)” and the EC50 is under 1000 nM.

In the case of `Cc1cccc(C)c1-c1cc2nc(n1)NS(=O)(=O)c1cccc(c1)CN1CC(CNCC1=O)O2` (centres unmarked) [Compound 76, 12-(2,6-Dimethylphenyl)-15-oxa-8λ^6-thia-1,9,11,18,22-pentaazatetracyclo[14.4.1.13,7.110,14]tricosa-3(23),4,6,10,12,14(22)-hexaene-8,8,20-trione], the “Ent. A Max Activity (%)” value is given as “+ (+ is <30%)”.

`Cc1cccc(C)c1-c1cc2nc(n1)NS(=O)(=O)c1cccc(c1)CN1CC(CN(C3CCC(F)(F)CC3)CC1=O)O2` (centres unmarked) [Compound 78, 18-(4,4-Difluorocyclohexyl)-12-(2,6-dimethylphenyl)-15-oxa-8λ^6-thia-1,9,11,18,22-pentaazatetracyclo[14.4.1.13,7.110,14]tricosa-3(23),4,6,10,12,14(22)-hexaene-8,8,20-trione]: the “Ent. A Max Activity (%)” value was “++ (++ is 30-60%)” and the half-maximal effective concentration (EC50) was under 1000 nM.

Take `Cc1cccc(C)c1-c1cc2nc(n1)NS(=O)(=O)c1cccc(c1)C(=O)N1CCN(C(=O)CC34CC5CC(CC(C5)C3)C4)C[C@H](C1)O2` [Compound 79, (16R)-18-[2-(Adamantan-1-yl)acetyl]-12-(2,6-dimethylphenyl)-15-oxa-8λ^6-thia-1,9,11,18,22-pentaazatetracyclo[14.4.1.13,7.110,14]tricosa-3(23),4,6,10,12,14(22)-hexaene-2,8,8-trione]: the “Ent. A Max Activity (%)” value is reported as “+++ (+++ is >600%)” and the EC50 was under 1000 nM.

With `Cc1cccc(C)c1-c1cc2nc(n1)NS(=O)(=O)c1cccc(c1)C(=O)N1CCN(C(=O)C(C)(C)C)C[C@H](C1)O2` [Compound 80, (16R)-12-(2,6-Dimethylphenyl)-18-(2,2-dimethylpropanoyl)-15-oxa-8λ^6-thia-1,9,11,18,22-pentaazatetracyclo[14.4.1.13,7.110,14]tricosa-3(23),4,6,10,12,14(22)-hexaene-2,8,8-trione], the “Ent. A Max Activity (%)” value is listed as “+++ (+++ is >600%)” and the EC50 fell in the range of 3000 to 30000 nM.

Turning to `Cc1cccc(C)c1-c1cc2nc(n1)NS(=O)(=O)c1cccc(c1)C(=O)N1CCN(C(=O)CC(C)(C)C)C[C@H](C1)O2` [Compound 81, (16R)-18-(3,3-Dimethylbutanoyl)-12-(2,6-dimethylphenyl)-15-oxa-8λ^6-thia-1,9,11,18,22-pentaazatetracyclo[14.4.1.13,7.110,14]tricosa-3(23),4,6,10,12,14(22)-hexaene-2,8,8-trione], the “Ent. A Max Activity (%)” value was “+++ (+++ is >600%)” and the EC50 fell in the range of 1000 to 3000 nM.

Turning to `Cc1cccc(C)c1-c1cc2nc(n1)NS(=O)(=O)c1cccc(c1)C(=O)N1CCN(Cc3ccccc3)CC(C)(C1)O2` (centres unmarked) [Compound 82, 18-Benzyl-12-(2,6-dimethylphenyl)-16-methyl-15-oxa-8λ^6-thia-1,9,11,18,22-pentaazatetracyclo[14.4.1.13,7.110,14]tricosa-3(23),4,6,10,12,14(22)-hexaene-2,8,8-trione], the “Ent. A Max Activity (%)” value is on record as “+++ (+++ is >600%)” and the EC50 fell in the range of 1000 to 3000 nM.

`Cc1cccc(C)c1-c1cc2nc(n1)NS(=O)(=O)c1cccc(c1)C(=O)N1CCN(C3CC4(CCCC4)C3)C[C@@H](O2)[C@H]1CC(C)C` [Compound 83, (16R,21R)-12-(2,6-Dimethylphenyl)-21-(2-methylpropyl)-18-{spiro[3.4]octan-2-yl}-15-oxa-8λ^6-thia-1,9,11,18,22-pentaazatetracyclo[14.4.1.13,7.110,14]tricosa-3(23),4,6,10(22),11,13-hexaene-2,8,8-trione]: the “Ent. A Max Activity (%)” value was “+++ (+++ is >600%)” and the concentration for a half-maximal effect (EC50) was under 1000 nM.

Take `Cc1cccc(C)c1-c1cc2nc(n1)NS(=O)(=O)c1cccc(c1)C(=O)N1CCNCC(O2)C1CC(C)C` (centres unmarked) [Compound 93, 12-(2,6-Dimethylphenyl)-21-(2-methylpropyl)-15-oxa-8λ^6-thia-1,9,11,18,22-pentaazatetracyclo[14.4.1.13,7.110,14]tricosa-3(23),4,6,10(22),11,13-hexaene-2,8,8-trione]: the “Ent. A Max Activity (%)” value is recorded as “+++ (+++ is >600%)” and the EC50 was 1000 to 3000 nM.

With `Cc1cccc(C)c1-c1cc2nc(n1)NS(=O)(=O)c1cccc(c1)C(=O)N1C[C@@H](CNC[C@@H]1CC(C)C)O2` [Compound 95, (16R,20S)-12-(2,6-Dimethylphenyl)-20-(2-methylpropyl)-15-oxa-8λ^6-thia-1,9,11,18,22-pentaazatetracyclo[14.4.1.13,7.110,14]tricosa-3(23),4,6,10(22),11,13-hexaene-2,8,8-trione], the “Ent. A Max Activity (%)” value was “++ (++ is 30-60%)” and the EC50 was under 1000 nM.

With `Cc1cccc(C)c1-c1cc2nc(n1)NS(=O)(=O)c1cccc(c1)C(=O)N1C[C@@H](CN(C3CC4(CCCC4)C3)C[C@@H]1CC(C)C)O2` [Compound 97, (16R,20S)-12-(2,6-Dimethylphenyl)-20-(2-methylpropyl)-18-{spiro[3.4]octan-2-yl}-15-oxa-8λ^6-thia-1,9,11,18,22-pentaazatetracyclo[14.4.1.13,7.110,14]tricosa-3(23),4,6,10(22),11,13-hexaene-2,8,8-trione], the “Ent. A Max Activity (%)” value was “++ (++ is 30-60%)” and the 50% effective concentration (EC50) was under 1000 nM.

Consider `Cc1cccc(C)c1-c1cc2nc(n1)NS(=O)(=O)c1cccc(c1)C(=O)N1C[C@@H](CN(CC(F)(F)F)C[C@@H]1CC(C)C)O2` [Compound 98, (16R,20S)-12-(2,6-Dimethylphenyl)-20-(2-methylpropyl)-18-(2,2,2-trifluoroethyl)-15-oxa-8λ^6-thia-1,9,11,18,22-pentaazatetracyclo[14.4.1.13,7.110,14]tricosa-3(23),4,6,10(22),11,13-hexaene-2,8,8-trione], for which the “Ent. A Max Activity (%)” value is “+ (+ is <30%)”.

On to `Cc1cccc(C)c1-c1cc2nc(n1)NS(=O)(=O)c1cccc(c1)C(=O)N1C[C@@H](CN(C)C[C@@H]1CC(C)C)O2` [Compound 99, (16R,20S)-12-(2,6-Dimethylphenyl)-18-methyl-20-(2-methylpropyl)-15-oxa-8λ^6-thia-1,9,11,18,22-pentaazatetracyclo[14.4.1.13,7.110,14]tricosa-3(23),4,6,10(22),11,13-hexaene-2,8,8-trione], for which the “Ent. A Max Activity (%)” value was “++ (++ is 30-60%)” and the half-maximal effective concentration (EC50) was under 1000 nM.

Regarding `Cc1cccc(C)c1-c1cc2nc(n1)NS(=O)(=O)c1cccc(c1)C(=O)N1C[C@@H](CNC[C@H]1CC(C)C)O2` [Compound 101, (16R,20R)-12-(2,6-Dimethylphenyl)-20-(2-methylpropyl)-15-oxa-8λ^6-thia-1,9,11,18,22-pentaazatetracyclo[14.4.1.13,7.110,14]tricosa-3(23),4,6,10,12,14(22)-hexaene-2,8,8-trione], the “Ent. A Max Activity (%)” value is “++ (++ is 30-60%)” and the EC50 is under 1000 nM.
